Assay results from patent publication US20080058373A1, “Compositions and Methods for Treating or Preventing Glaucoma or Progression Thereof” (priority 2006, published 2008).
Where “and” joins values, the source holds several entries; their conditions need not be identical. Equal values may be shown once. Entries after “also recorded” stand apart in the source; their conditions may differ.

Key:
Type in all cases: in vivo
Leukocytes (PMN) = Leukocytes (PMN) measurement in aqueous humor, rabbit paracentesis model; conditions: for PMN numbers in aqueous humor, Mean: second paracentesis, group mean
Description: (§1) Each rabbit was placed in a restraint device and tagged with the alphanumeric code. The formulations were instilled (50 μl) into the conjunctival sac of both eyes 180, 120, 90 and 30 min before the first paracentesis; then 15, 30, 90 min after the first paracentesis. To perform the first paracentesis the animals were anaesthetized by intravenous injection of 5 mg/kg Zoletil® (Virbac; 2.5 mg/kg tiletamine HCl and 2.5 mg/kg zolazepam HCl) and one drop of local anesthetic (Novesina®, Novartis) was administered to the eye. Anterior chamber paracentesis was performed with a 26 G needle attached to a tuberculin syringe; the needle was introduced into the anterior chamber through the cornea, taking care not to damage the tissues. Two hours after the first paracentesis, the animals were sacrificed with 0.4 ml Tanax® (Intervet International B.V.) and the second paracentesis was performed. About 100 μl of aqueous humor were removed at the second paracentesis. Aqueous humor was immediately split in four aliquots and stored at −80° C. until analysis. Then both eyes were enucleated and the iris-ciliary body was carefully excised, placed in polypropylene tubes, and stored at −80° C. until analysis.
For the determination of the number of leukocytes we used a haemocytometer (Improved Neubauer Chamber; Bright-line, Hausser Scientific) and a Polyvar 2 microscope (Reichert-Jung).

Myeloperoxidase (MPO) = Myeloperoxidase (MPO) activity in iris-ciliary body, rabbit paracentesis model; conditions: for MPO activity in iris-ciliary body, Mean / MPO activity in iris-ciliary body: samples collected after the second paracentesis; for MPO activity in iris-ciliary body, Mean: group mean; for Δ/min (mean of the slope of the line recorded every 15 sec for 5 min): 100 μl supernatant aliquot diluted to 3 ml; for Δ/min (mean of the slope of the line recorded every 15 sec for 5 min) / MPO activity in iris-ciliary body: individual eyes
Description: 3.9 g of NaH2PO4 2H2O were dissolved in a volumetric flask to 500 ml with water. The pH was adjusted to pH=6 with 3N NaOH.
0.5 g of hexa-decyl-trimethyl-ammonium bromide was dissolved in 100 ml phosphate buffer.
The solution was prepared freshly. Ten microliters of H2O2 (30 wt. %) were diluted to 1 ml with water (solution A). 7.5 mg o-dianisidine 2HCl was dissolved in 45 ml of phosphate buffer and 75 μl of solution A were added.
as §1
The activity of MPO was measured as previously described by Williams et al.[5] The iris-ciliary bodies were carefully dried, weighed and immersed in 1 ml of hexa-decyl-trimethyl-ammonium bromide solution. Then, the samples were sonicated for 10 sec on ice by a ultrasound homogenizer (HD 2070, Bandelin electronic), freeze-thawed three times, sonicated for 10 sec and centrifuged at 14,000 g for 10 min to remove cellular debris. An aliquot of the supernatant (40-200 μl) was diluted to 3 ml with the o-dianisidine 2HCl/H2O2 solution. The change in absorbance at 460 nm was continuously monitored for 5 min by a spectrophotometer (UV/Vis Spectrometer Lambda EZ 201; Perkin Elmer). The slope of the line (Δ/min) was determined for each sample and used to calculate the number of units of MPO in the tissue as follows:
Values were expressed as units of MPO/g of tissue.

[1] = test system: rabbit eye (anterior chamber paracentesis); experiment: Rabbit paracentesis model of anterior-segment inflammation (overall conclusion); conditions: 0.1%, 0.5% and 1% topical formulations
Excerpt: Inflammatory processes are multidimensional in origin, and are characterized by complex cellular and molecular events involving numerous components all of which have not been identified. Prostaglandins are among these mediators and play an important role in certain forms of ocular inflammation. Paracentesis of the anterior chamber in the rabbit eye induces inflammatory reaction due to the disruption of the blood-aqueous barrier (“BAB”), which is mediated, at least in part, by prostaglandin E2 [References 1-3 below]. Intraocular or topical administration of PGE2 disrupts the BAB. [Reference 4, below] The treatment schedule adopted in this study was similar to the clinical NSAIDs (Ocufen) treatment schedule used by surgeons for patients before cataract surgery.
Each rabbit was placed in a restraint device and tagged with the alphanumeric code. The formulations were instilled (50 μl) into the conjunctival sac of both eyes 180, 120, 90 and 30 min before the first paracentesis; then 15, 30, 90 min after the first paracentesis. […]
Pupillary diameter, PGE2, protein, PMN, and MPO were expressed as mean±SEM. […] Clinical score was expressed as % of eyes and the statistical analysis was performed using Kruskal-Wallis followed by a Dunn post hoc test. […]

Row | SMILES | PMN numbers in aqueous humor, Mean (Leukocytes (PMN); 0.1% topical) | PMN numbers in aqueous humor, Mean (Leukocytes (PMN); 0.5% topical) | PMN numbers in aqueous humor (raw data) (Leukocytes (PMN); 1% topical, samples collected at the second paracentesis, single eyes, listed as BOL) | PMN numbers in aqueous humor, Mean (Leukocytes (PMN); 1% topical) | MPO activity in iris-ciliary body, Mean (Myeloperoxidase (MPO); 0.1% topical) | Δ/min (mean of the slope of the line recorded every 15 sec for 5 min) (Myeloperoxidase (MPO); 0.1% treatment, listed as BOL) | MPO activity in iris-ciliary body (Myeloperoxidase (MPO); 0.1% treatment, listed as BOL) | MPO activity in iris-ciliary body, Mean (Myeloperoxidase (MPO); 0.5% topical) | Δ/min (mean of the slope of the line recorded every 15 sec for 5 min) (Myeloperoxidase (MPO); 0.5% treatment, listed as BOL) | MPO activity in iris-ciliary body (Myeloperoxidase (MPO); 0.5% treatment, listed as BOL) | MPO activity in iris-ciliary body, Mean (Myeloperoxidase (MPO); 1% topical) | Δ/min (mean of the slope of the line recorded every 15 sec for 5 min) (Myeloperoxidase (MPO); 1% treatment, listed as BOL) | MPO activity in iris-ciliary body (Myeloperoxidase (MPO); 1% treatment, listed as BOL) | Anti-inflammatory activity in the rabbit paracentesis model (preliminary conclusion) [1] | Δ/min (mean of the slope of the line recorded every 15 sec for 5 min) (Myeloperoxidase (MPO); 0.1% treatment, listed as Dex) | MPO activity in iris-ciliary body (Myeloperoxidase (MPO); 0.1% treatment, listed as Dex)
1 | Cc1ccc2c(NCC(O)(CC(C)(C)c3cc(F)cc4c3OCC4)C(F)(F)F)cccc2n1 (stereo not drawn) | 28.333 number/μl | 21.250 number/μl | 30 number/μl and 20 number/μl and 40 number/μl | 28.750 number/μl | 0.971 MPO Unit/g | 0.051 and 0.042 (2×) and 0.045 and 0.050 and 0.031 (2×) and 0.036 | 1.04 Unit/g and 1.00 Unit/g and 1.14 Unit/g and 1.06 Unit/g and 1.22 Unit/g and 0.61 Unit/g and 1.05 Unit/g and 0.65 Unit/g | 0.775 MPO Unit/g | 0.044 and 0.040 and 0.031 and 0.049 and 0.033 and 0.034 and 0.022 and 0.026 | 0.85 Unit/g and 0.93 Unit/g and 0.79 Unit/g and 1.03 Unit/g and 0.75 Unit/g and 0.74 Unit/g and 0.54 Unit/g and 0.58 Unit/g | 0.542 MPO Unit/g | 0.024 and 0.033 and 0.017 and 0.018 (2×) and 0.016 and 0.052 and 0.013 | 0.66 Unit/g and 0.68 Unit/g and 0.49 Unit/g and 0.40 Unit/g and 0.34 Unit/g and 1.02 Unit/g and 0.31 Unit/g and 0.43 Unit/g | active in this model; also recorded: as effective an anti-inflammatory drug as some of the commonly accepted prior-art steroids or NSAID |  | 
2 | C[C@@H]1C[C@H]2[C@@H]3CCC4=CC(=O)C=C[C@]4(C)[C@@]3(F)[C@@H](O)C[C@]2(C)[C@@]1(O)C(=O)CO [dexamethasone, reference compound] | 30.000 number/μl |  |  |  | 0.618 MPO Unit/g |  |  |  |  |  |  |  |  |  | 0.029 and 0.031 and 0.064 and 0.023 (2×) and 0.019 and 0.024 and 0.021 | 0.71 Unit/g and 0.60 Unit/g and 1.32 Unit/g and 0.48 Unit/g (2×) and 0.39 Unit/g and 0.45 Unit/g and 0.51 Unit/g
